Measurements reported in patent EP0533925A1, “OPTICAL ISOMER OF R-FORM OF DIPHENYL ETHER DERIVATIVE AND HERBICIDE CONTAINING THE SAME AS ACTIVE INGREDIENT” (TEIJIN LIMITED, priority 1990, dated 1991).

Columns and labels:
Experiment in all cases: Herbicidal activity, foliar application of single compounds (Test Examples 1 to 5)
Type in all cases: in vivo
Parameters in all cases: key: 0 means the state where the plants are as sound as before the application of the active compound; 1, 2, 3 and 4 mean varying degrees of the enfeebled state of the plants between 0 and 5; 1, 2, 3 and 4 mean varying degrees of the enfeebled state of the plants between 0 and 5; 1, 2, 3 and 4 mean varying degrees of the enfeebled state of the plants between 0 and 5; 1, 2, 3 and 4 mean varying degrees of the enfeebled state of the plants between 0 and 5; 5 is the state where the plants are withered or killed by application of the active compound
Conditions in all cases: 3 weeks after application
Abutilon theophrosti = system: Abutilon theophrosti
Method: (§1) In these examples, all parts means parts by weight, unless otherwise noted. The herbicidal activity was evaluated on a scale of 6 degrees. In other words, 0 means the state where the plants are as sound as before the application of the active compound, while 5 is the state where the plants are withered or killed by application of the active compound, and 1, 2, 3 and 4 mean varying degrees of the enfeebled state of the plants between 0 and 5.
(§2) The diphenyl ethers shown in Table 2 were added to 5000 parts of a mixture of acetone and water (1 : 1 by volume), and 2.6 parts of a nonionic surfactant (Sorpol 2680, tradename) was added to form a solution, so that the ether becomes the prescribed amount in each solution.
(§3) Seeds of plants were sown in the soil, cultivated for 2 to 3 weeks, after germination, then the plants were used for the tests.
(§4) The prepared solution was applied to these plants at the prescribed rate of application in total, then the plants were continuously cultivated for 3 weeks without applying the solution.
(§5) The alphabetical symbols in Tables 2 and 3 represent the following plants, respectively: a: Digitaria adscendens b: Setaria viridis c: Sorghum halepense d: Chenopodium album var. centrorubrum e: Amaranthus mangostanus f: Astragalus sinicus g: Abutilon theophrosti h: Solanum nigrum i: Xanthium strumarium j: Soybean; Glycine max k: Corn; Zea mays Table 2

Astragalus sinicus = system: Astragalus sinicus
Method: as §1, §2, §3, §4, §5

Solanum nigrum = system: Solanum nigrum
Method: as §1, §2, §3, §4, §5

Soybean; Glycine max = system: Soybean; Glycine max
Method: as §1, §2, §3, §4, §5

Sorghum halepense = system: Sorghum halepense
Method: as §1, §2, §3, §4, §5

[1] = system: Chenopodium album var. centrorubrum
Method: as §1, §2, §3, §4, §5

Digitaria adscendens = system: Digitaria adscendens
Method: as §1, §2, §3, §4, §5

Setaria viridis = system: Setaria viridis
Method: as §1, §2, §3, §4, §5

[2] = Rate of Application 0.016 kg/ha
[3] = Rate of Application 0.031 kg/ha

COC(=O)C(C)Oc1cc(Oc2ccc(C(F)(F)F)cc2Cl)ccc1C#N (stereo not drawn) [Compound (1), Methyl α-[2-cyano-5-(2-chloro-4-trifluoromethylphenoxy)phenoxy]propionate]
herbicidal activity, Plants g (Abutilon theophrosti; [2]): 5 | herbicidal activity, Plants g (Abutilon theophrosti; [3]): 5 | herbicidal activity, Plants f (Astragalus sinicus; [2]): 5 | herbicidal activity, Plants f (Astragalus sinicus; [3]): 5 | herbicidal activity, Plants h (Solanum nigrum; [2]): 5 | herbicidal activity, Plants h (Solanum nigrum; [3]): 5 | herbicidal activity, Plants j (Soybean; Glycine max; [2]): 4 | herbicidal activity, Plants j (Soybean; Glycine max; [3]): 4 | herbicidal activity, Plants c (Sorghum halepense; [2]): 5 | herbicidal activity, Plants c (Sorghum halepense; [3]): 5 | herbicidal activity, Plants d [1, 2]: 5 | herbicidal activity, Plants d [1, 3]: 5 | herbicidal activity, Plants a (Digitaria adscendens; [2]): 4 | herbicidal activity, Plants a (Digitaria adscendens; [3]): 4 | herbicidal activity, Plants b (Setaria viridis; [2]): 3 | herbicidal activity, Plants b (Setaria viridis; [3]): 4
